pEC50, pIC50, pKd: −log10 of the molar value.
Assays:
[1] = biological target: T1, WDR5 (Homo sapiens, UniProt P61964); assay: Fluorescence Polarization (FP) binding assay
Summary of the method: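 Buffer was pH 6.5 sodium phosphate (80 mM) with 20 mM KCl and 0.008% Triton X-100; 9-Ala-FAM probe at 20 nM used 0.05 μM WDR5 and 480/540 nm polarization, H3 (1-15) probe at 30 nM used 0.3 μM WDR5 and 485/528 nm. Quadruplicate data were hyperbola-fitted to give Kdisp.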

[2] = tested on: MV4-11 cells; assay: Cell proliferation assay (ATPlite); type: cell-based; settings: Homo sapiens, 120 h; MV4-11 cells, five days; read-out: GI MV411 EC50
Method: MV4-11 cells were seeded into a 96-well plate at 1,000 cells/well in 150 μl medium (Alpha-MEM containing 10% FBS, 100 μg/ml Normocin, and 50 μg/ml Gentamycin, Invitrogen). A HP D300 digital dispenser was used to dose cells with DMSO or test compounds across a 10-point range of concentrations (high dose of 10 μM), and cultures were grown in a humidified 5% CO2 incubator at 37° C. After five days, plates were removed from incubator and equilibrated to room temperature. An equal volume of ATPlite assay reagent was added to each well, and samples were processed according to manufacturer's instructions (Perkin Elmer). Luminescent signal was measured using an Envision plate reader equipped with a US-Luminescence detector.

[3] = biological target: T1, WDR5; assay: Surface Plasmon Resonance (SPR) assay; type: binding; parameters: Full length WDR5 with an N-terminal His tag and C-terminal AviTag; His tag (N); made in house; host or cells: E. coli; settings: read-out: SPR Kd
Summary of the method: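 Full-length biotinylated WDR5 (N-His, C-AviTag, E. coli) captured (~3000 RU) on streptavidin SA chip; Biacore T200. HBS-EP pH 7.4 plus 5% DMSO running buffer, 40 μl/min.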

Compound | pIC50 [1] | pEC50 [2] | pKd [3]
C[C@H]1CN(c2cc(F)c(C3=CCCN(C(=O)OC4CC(F)(F)C4)C3)c(F)c2NC(=O)c2c[nH]c(=O)cc2C(F)(F)F)CCN1C [Example 46, 3,3-Difluorocyclobutyl (S)-5-(4-(3,4-dimethylpiperazin-1-yl)-2,6-difluoro-3-(6-oxo-4-(trifluoromethyl)-1,6-dihydropyridine-3-carboxamido)phenyl)-3,6-dihydropyridine-1(2H)-carboxylate] | 7.83 | 6.22 | 8.53
C[C@H]1CN(c2cc(F)c(C3=CCN(C(=O)OC4CC(F)(F)C4)CC3)c(F)c2NC(=O)c2c[nH]c(=O)cc2C(F)(F)F)CCN1C [Example 47, 3,3-Difluorocyclobutyl (S)-4-(4-(3,4-dimethylpiperazin-1-yl)-2,6-difluoro-3-(6-oxo-4-(trifluoromethyl)-1,6-dihydropyridine-3-carboxamido)phenyl)-3,6-dihydropyridine-1(2H)-carboxylate] | 7.76 | 7.20 | 8.87
C[C@@H]1CN(c2ncc(-c3c(F)cc(N4CCN(C)[C@@H](C)C4)c(NC(=O)c4c[nH]c(=O)cc4C(F)(F)F)c3F)cn2)C[C@H](C)O1 [Example 55, N-(3-(2-((2S,6R)-2,6-dimethylmorpholino)pyrimidin-5-yl)-6-((S)-3,4-dimethylpiperazin-1-yl)-2,4-difluorophenyl)-6-oxo-4-(trifluoromethyl)-1,6-dihydropyridine-3-carboxamide] | 7.83 | 7.62 | 9.11
C[C@@H]1CN(c2nccc(-c3c(F)cc(N4CCN(C)[C@@H](C)C4)c(NC(=O)c4cn(C)c(=O)cc4C(F)(F)F)c3F)n2)C[C@H](C)O1 [Example 56, N-(3-(2-((2S,6R)-2,6-dimethylmorpholino)pyrimidin-4-yl)-6-((S)-3,4-dimethylpiperazin-1-yl)-2,4-difluorophenyl)-1-methyl-6-oxo-4-(trifluoromethyl)-1,6-dihydropyridine-3-carboxamide] | 7.44 | 5.88 | 8.01
C[C@@H]1CN(c2cc(F)c(-c3cnc(N4CCC(F)(F)CC4)nc3)c(F)c2NC(=O)c2c[nH]c(=O)cc2C(F)(F)F)C[C@H](C)N1C [Example 61, N-(3-(2-(4,4-difluoropiperidin-1-yl)pyrimidin-5-yl)-2,4-difluoro-6-((3S,5R)-3,4,5-trimethylpiperazin-1-yl)phenyl)-6-oxo-4-(trifluoromethyl)-1,6-dihydropyridine-3-carboxamide] | 7.93 | 7.64 | 8.90
C[C@@H]1CN(c2ccc(-c3c(F)cc(N4C[C@@H](C)N(C)[C@@H](C)C4)c(NC(=O)c4c[nH]c(=O)cc4C(F)(F)F)c3F)cn2)C[C@H](C)O1 [Example 62, N-(3-(6-((2S,6R)-2,6-dimethylmorpholino)pyridin-3-yl)-2,4-difluoro-6-((3S,5R)-3,4,5-trimethylpiperazin-1-yl)phenyl)-6-oxo-4-(trifluoromethyl)-1,6-dihydropyridine-3-carboxamide] | 7.84 | 7.60 | 8.67
C[C@@H]1CN(c2cc(F)c(-c3cnc(N(C)C)c(F)c3)c(F)c2NC(=O)c2c[nH]c(=O)cc2C(F)(F)F)C[C@H](C)N1C [Example 63, N-(3-(6-(dimethylamino)-5-fluoropyridin-3-yl)-2,4-difluoro-6-((3S,5R)-3,4,5-trimethylpiperazin-1-yl)phenyl)-6-oxo-4-(trifluoromethyl)-1,6-dihydropyridine-3-carboxamide] | 7.89 | 7.21 | 8.74

The remaining lines, values ahead:

pIC50 [1] | pEC50 [2] | pKd [3] | Compound
7.65 | 6.57 | 8.83 | COc1cnc(N2CC=C(c3c(F)cc(N4CCN(C)[C@@H](C)C4)c(NC(=O)c4c[nH]c(=O)cc4C(F)F)c3F)CC2)nc1 [Example 48, (S)-4-(difluoromethyl)-N-(6-(3,4-dimethylpiperazin-1-yl)-2,4-difluoro-3-(1-(5-methoxypyrimidin-2-yl)-1,2,3,6-tetrahydropyridin-4-yl)phenyl)-6-oxo-1,6-dihydropyridine-3-carboxamide]
7.66 | 6.48 | 8.57 | COc1cnc(N2CCC=C(c3c(F)cc(N4CCN(C)[C@@H](C)C4)c(NC(=O)c4c[nH]c(=O)cc4C(F)F)c3F)C2)nc1 [Example 49, (S)-4-(difluoromethyl)-N-(6-(3,4-dimethylpiperazin-1-yl)-2,4-difluoro-3-(1-(5-methoxypyrimidin-2-yl)-1,2,5,6-tetrahydropyridin-3-yl)phenyl)-6-oxo-1,6-dihydropyridine-3-carboxamide]
7.93 | 7.08 | 9.10 | COc1cnc(N2CC=C(c3c(F)cc(N4CCN(C)[C@@H](C)C4)c(NC(=O)c4c[nH]c(=O)cc4C(F)F)c3F)C2)nc1 [Example 50, (S)-4-(difluoromethyl)-N-(6-(3,4-dimethylpiperazin-1-yl)-2,4-difluoro-3-(1-(5-methoxypyrimidin-2-yl)-2,5-dihydro-1H-pyrrol-3-yl)phenyl)-6-oxo-1,6-dihydropyridine-3-carboxamide]
7.77 | 6.95 | 8.96 | COc1cnc(N2CC=C(c3c(F)cc(N4CCN(C)[C@@H](C)C4)c(NC(=O)c4c[nH]c(=O)cc4C(F)(F)F)c3F)C2)nc1 [Example 51, (S)—N-(6-(3,4-dimethylpiperazin-1-yl)-2,4-difluoro-3-(1-(5-methoxypyrimidin-2-yl)-2,5-dihydro-1H-pyrrol-3-yl)phenyl)-6-oxo-4-(trifluoromethyl)-1,6-dihydropyridine-3-carboxamide]
7.70 | 6.55 | 9.34 | COc1cnc(N2CCC=C(c3c(F)cc(N4CCN(C)[C@@H](C)C4)c(NC(=O)c4c[nH]c(=O)cc4C(F)(F)F)c3F)C2)nc1 [Example 52, (S)—N-(6-(3,4-dimethylpiperazin-1-yl)-2,4-difluoro-3-(1-(5-methoxypyrimidin-2-yl)-1,2,5,6-tetrahydropyridin-3-yl)phenyl)-6-oxo-4-(trifluoromethyl)-1,6-dihydropyridine-3-carboxamide]
7.71 | 7.12 | 8.99 | COc1cnc(N2CC=C(c3c(F)cc(N4CCN(C)[C@@H](C)C4)c(NC(=O)c4c[nH]c(=O)cc4C(F)(F)F)c3F)CC2)nc1 [Example 53, (S)—N-(6-(3,4-dimethylpiperazin-1-yl)-2,4-difluoro-3-(1-(5-methoxypyrimidin-2-yl)-1,2,3,6-tetrahydropyridin-4-yl)phenyl)-6-oxo-4-(trifluoromethyl)-1,6-dihydropyridine-3-carboxamide]
7.54 | 6.16 | 8.42 | C[C@H]1CN(c2cc(F)c(C3=CCCN(c4ncccn4)C3)c(F)c2NC(=O)c2c[nH]c(=O)cc2C(F)F)CCN1C [Example 54, (S)-4-(difluoromethyl)-N-(6-(3,4-dimethylpiperazin-1-yl)-2,4-difluoro-3-(1-(pyrimidin-2-yl)-1,2,5,6-tetrahydropyridin-3-yl)phenyl)-6-oxo-1,6-dihydropyridine-3-carboxamide]
7.57 | 6.44 | 8.12 | C[C@@H]1CN(c2nccc(-c3c(F)cc(N4CCN(C)[C@@H](C)C4)c(NC(=O)c4cn(C)c(=O)cc4C(F)F)c3F)n2)C[C@H](C)O1 [Example 57, 4-(Difluoromethyl)-N-(3-(2-((2S,6R)-2,6-dimethylmorpholino)pyrimidin-4-yl)-6-((S)-3,4-dimethylpiperazin-1-yl)-2,4-difluorophenyl)-1-methyl-6-oxo-1,6-dihydropyridine-3-carboxamide]
7.82 | 7.00 | 8.90 | C[C@@H]1CN(c2nccc(-c3c(F)cc(N4CCN(C)[C@@H](C)C4)c(NC(=O)c4c[nH]c(=O)cc4C(F)(F)F)c3F)n2)C[C@H](C)O1 [Example 58, N-(3-(2-((2S,6R)-2,6-dimethylmorpholino)pyrimidin-4-yl)-6-((S)-3,4-dimethylpiperazin-1-yl)-2,4-difluorophenyl)-6-oxo-4-(trifluoromethyl)-1,6-dihydropyridine-3-carboxamide]
7.84 | 7.25 | 8.94 | C[C@@H]1CN(c2nccc(-c3c(F)cc(N4CCN(C)[C@@H](C)C4)c(NC(=O)c4c[nH]c(=O)cc4C(F)F)c3F)n2)C[C@H](C)O1 [Example 59, 4-(Difluoromethyl)-N-(3-(2-((2S,6R)-2,6-dimethylmorpholino)pyrimidin-4-yl)-6-((S)-3,4-dimethylpiperazin-1-yl)-2,4-difluorophenyl)-6-oxo-1,6-dihydropyridine-3-carboxamide]
7.96 | 7.94 | 8.90 | C[C@H]1CN(c2ncc(-c3c(F)cc(N4CCN(C)[C@@H](C)C4)c(NC(=O)c4c[nH]c(=O)cc4C(F)(F)F)c3F)cn2)CCO1 [Example 60, N-(6-((S)-3,4-dimethylpiperazin-1-yl)-2,4-difluoro-3-(2-((S)-2-methylmorpholino)pyrimidin-5-yl)phenyl)-6-oxo-4-(trifluoromethyl)-1,6-dihydropyridine-3-carboxamide]

Reference: patent US20200385371A1 (Propellon Therapeutics Inc., priority 2017, published 2020)
